≈ marks a conversion by molar mass, not a printed value.
Tests used:
Toxocara canis = assay: Test 8 test against dog nematodes (Toxocara canis); assay type: in vivo, Toxocara canis (in dogs); conditions: dogs, once
Description: (§1) Test 8 (Test against Dog Nematodes) A test was conducted using dogs which had been infected naturally with Ancylostoma caninum or Toxocara canis. Namely, using 8 hybrid dogs of 2 months old, KSB-1939H2 according to this invention was administered subcutaneously at a dosage of 0.1 mg/kg-body weight or orally at a dosage of 0.5 mg/kg-body weight. Administration was effected only once. Evaluation was conducted by comparing the number of eggs contained in feces excreted from each dog before the treatment with that of eggs contained in feces excreted from the dog after the treatment.

Ancylostoma caninum = assay: Test 8 test against dog nematodes (Ancylostoma caninum); assay type: in vivo, Ancylostoma caninum (in dogs); conditions: dogs, once
Description: as §1

Twospotted Spider Mite [1] = assay: Test 1 miticidal test against adult female twospotted spider mite; assay type: in vivo, Teranychus urticae Koch; conditions: Tetranychus urticae, 48 h, 2 days after treatment, read-out: Corrected mite mortality
Excerpt: Test 1 (Miticidal Test against Adult Female Twospotted Spider Mite)
(§2) Each of polyethylene-made cups having a diameter of 55 mm and filled with water was covered with a lid through which a hole having a diameter of 10 mm was formed centrally. Absorbent cotton was suspended through the hole of the lid so as to absorb water. A sheet of filter paper was placed on the lid. Two bean leaf disks were place don the filter paper so that the disks were always supplied with water. Using a writing brush, adult female two spotted spider mites were inoculated at a rate of 10 mites per leaf disk. Twenty-four hours later, abnormal mites were removed, and wettable powders which had been prepared in accordance with the procedures of Preparation Examples 4-6 respectively were separately diluted to a predetermined concentration and sprayed to apply 2 mg/cm^2 of the respective agrochemical solutions. The test was conducted dually. Two days after the treatment with the agrochmical solutions, it was determined through a stereoscopic microscope whether the mites were alive or dead. The corrected mite mortality was calculated in accordance with the following equation. [formula]

Kanzawa spider mite = assay: Test 2 LC50 against Kanzawa spider mite; assay type: in vivo, Tetranychus kanzawai Kishida; conditions: 48 h; for LC50: Tetranychus kanzawai, following procedure of Test 1
Excerpt: as §2
(§3) Following the procedure of Test 1, tests were conducted with respect to Kanzawa spider mite and twospotted spider mite so that their LC50 values were determined. Milbemycin was used as a control.

Asiatic Rice Borer = assay: Test 5 insecticidal test against Asiatic rice borer; assay type: in vivo, Chilo suppressalis Walker; conditions: Chilo suppressalis, 120 h, 3rd-instar larvae, 5 days, 25° C.
Description: (§4) Test 5 (Insecticidal Test against Asiatic Rice Borer) Wettable powders which had been prepared following the procedures of Preparation Examples 4-6 respectively were diluted with water to a predetermined concentration. Sprouted unhulled rice seeds were dipped in the resultant solutions and then dried in the air. They were placed separately in polyethylene-made cups having a diameter of 55 mm. Ten 3rd-instar larvae of asiatic rice borer were placed in each cup. The larvae were reared for 5 days in a constant-temperature chamber of 25° C. The test was conducted dually. The numbers of dead larvae were counted after the rearing, whereby mortality values of asiatic rice borer were calculated.

[2] = Distinction of basic, acidic or neutral; assay type: physicochemical
Twospotted Spider Mite [3] = assay: Test 2 LC50 against twospotted spider mite; assay type: in vivo, Teranychus urticae Koch; conditions: 48 h; for LC50: Tetranychus urticae, following procedure of Test 1
Excerpt: as §2, §3

Brown Rice Planthopper = assay: Test 3 insecticidal test against brown rice planthopper; assay type: in vivo, Nilaparvata lugens Stal; conditions: 120 h, larvae, 5 days, 25° C.
Description: Test 3 (Insecticidal Test against Brown Rice Planthopper) Wettable powders which had been prepared following the procedures of Preparation Examples 4-6 respectively were diluted with water to a predetermined concentration. Rice stems and leaves were dipped in the resultant solutions and then dried in the air. They were placed in test tubes. Ten brown rice planthopper larvae were placed in each test tube. The test tubes were plugged with absorbent cotton and the larvae were reared for 5 days in a constant-temperature chamber of 25° C. The test was conducted dually. The numbers of larvae were counted after the rearing, whereby mortality values of brown rice planthopper were calculated.

Toxocara cati = assay: Test 9 test against cat nematode; assay type: in vivo, Toxocara cati (in cats); conditions: cats
Description: Test 9 (Test against Cat Nematode) A test was conducted using cats which had been infected naturally with Toxocara cati. Namely, 4 hybrid cats infected with the nematode were administered with KSB-1939H2 of this invention at a dosage of 0.05 mg/kg-body weight in the case of subcutaneous administration or at a dosage of 0.1 mg/kg-body weight in the case of oral administration. Evaluation was conducted by comparing the number of eggs contained in feces excreted from each cat before the treatment with that of eggs contained in feces excreted from the cat after the treatment.

Solubility = assay type: physicochemical; conditions: for Solubility in organic solvents: methanol, acetone, ethyl acetate, chloroform and hexane
[4] = Test 11 acute toxicity test (oral), rat; set-up: species or system rat (F344); conditions: in vivo, male
Excerpt: (§5) Test 11 (Acute Toxicity Test)
(§6) The acute toxicity (oral) of one of the compounds of this invention was investigated using rats (male and female, F344, 7 weeks old) and mice (male and female, B6 C3 F1, 7 weeks old).

[5] = system: microfilariae of Dirofilaria immitis; assay: microbe, parasite or virus in culture; conditions: 240 h, read-out: LD50
[6] = Test 11 acute toxicity test (oral), mouse; set-up: species or system mouse (B6 C3 F1); conditions: in vivo, male
Excerpt: as §5, §6

Diamondback Moth = assay: Test 4 insecticidal test against diamondback moth; assay type: in vivo; conditions: Plutella xylostella, 120 h, 3rd-instar larvae, 5 days, 25° C.
Description: Test 4 (Insecticidal Test against Diamondback Moth)
as §4, with “Wettable” for “Test 5 (Insecticidal Test against Asiatic Rice Borer) Wettable”, “Cabbage leaves” for “Sprouted unhulled rice seeds”, “placed” for “placed separately”, “polyethylene-madecups” for “polyethylene-made cups”, “diamondback moth” for “asiatic rice borer”

Haemonchus concurtus = assay: Test 10 test against sheep nematode; assay type: in vivo, Haemonchus concurtus (in sheep); conditions: oral drench into rumen, once
Description: Test 10 (Test against Sheep Nematode) A test was conducted using sheep which had been infected with Haemonchus concurtus. Namely, KSB-1939H4 of this invention was formulated into oral drenches. Four sheep which had been infected artificially with Haemonchus concurtus were administered with the compound by injecting the oral drenches into their rumens respectively. They were treated only once by a single dosage of 0.5 mg/kg-body weight or 1.0 mg/kg-body weight. Evaluation was conducted by comparing the number of eggs contained in feces excreted from each sheep before the treatment with that of eggs contained in feces excreted from the sheep after the treatment.

Row | Compound | mortality at 0.2 ppm (Twospotted Spider Mite [1]) | mortality at 1 ppm (Twospotted Spider Mite [1]) | mortality at 0.2 ppm (Asiatic Rice Borer) | mortality at 1 ppm (Asiatic Rice Borer) | Distinction of basic, acidic or neutral [2] | mortality at 1 ppm (Brown Rice Planthopper) | mortality at 5 ppm (Brown Rice Planthopper) | Solubility in organic solvents (Solubility) | Solubility in water (Solubility) | LC50 [5] | LD50 [6] | further results
1 | CC(C)=CC(=O)OCC1=CC2C(=O)OC3CC(CC=C(C)CC(C)C=CC=C4COC(C1O)C42O)OC1(CCC(C)C(C)O1)C3 (stereo not shown) [KSB-1939H2] | 100% | 100% | 90% | 100% | Neutral | 95% | 100% | Soluble | Insoluble | 3.4 µg/mL (≈ 5.42 µM) | > 5000 mg/kg | activities (eggs in feces before and after treatment) (Toxocara canis; oral 0.5 mg/kg): 100%; activities (eggs in feces before and after treatment) (Toxocara canis; subcutaneous 0.1 mg/kg): 100%; activities (eggs in feces before and after treatment) (Ancylostoma caninum; oral 0.5 mg/kg): 100%; activities (eggs in feces before and after treatment) (Ancylostoma caninum; subcutaneous 0.1 mg/kg): 100%; mortality at 0.004 ppm (Twospotted Spider Mite [1]; 0.004 ppm): 70.1%; LC50 (Kanzawa spider mite): 0.0465 µg/mL (≈ 0.0742 µM); LC50 (Twospotted Spider Mite [3]): 0.0249 µg/mL (≈ 0.0397 µM); activities (eggs in feces before and after treatment) (Toxocara cati; oral 0.1 mg/kg): 100%; activities (eggs in feces before and after treatment) (Toxocara cati; subcutaneous 0.05 mg/kg): 100%; LD50 [4]: > 5000 mg/kg
2 | CC1=CCC2CC(CC3(CCC(C)C(C)O3)O2)OC(=O)C2C=C(COC(=O)CC(C)C)C(O)C3OCC(=CC=CC(C)C1)C23O (stereo not shown) [KSB-1939H3] | 100% | 100% | – | – | Neutral | – | 65% | Soluble | Insoluble | 1.5 µg/mL (≈ 2.39 µM) | > 5000 mg/kg | mortality at 5 ppm (Twospotted Spider Mite [1]): 100%; mortality at 25 ppm (Brown Rice Planthopper): 100%; mortality at 25 ppm (Diamondback Moth): 100%
3 | CCC(C)=CC(=O)OCC1=CC2C(=O)OC3CC(CC=C(C)CC(C)C=CC=C4COC(C1O)C42O)OC1(CCC(C)C(C)O1)C3 (stereo not shown) [KSB-1939H4] | 100% | 100% | 90% | 100% | Neutral | 65% | 100% | Soluble | Insoluble | 3.3 µg/mL (≈ 5.15 µM) | – | mortality at 0.04 ppm (Twospotted Spider Mite [1]): 94.2%; activities (eggs in feces before and after treatment) (Haemonchus concurtus; 0.5 mg/kg): 80-90%; activities (eggs in feces before and after treatment) (Haemonchus concurtus; 1.0 mg/kg): 100%
4 | CC1=CCC2CC(CC3(CCC(C)C(C)O3)O2)OC(=O)C2C=C(COC(=O)CCC(C)C)C(O)C3OCC(=CC=CC(C)C1)C23O (stereo not shown) [KSB-1939H5] | – | 100% | 90% | 100% | Neutral | – | – | Soluble | Insoluble | 1.6 µg/mL (≈ 2.49 µM) | – | mortality at 5 ppm (Twospotted Spider Mite [1]): 100%; mortality at 25 ppm (Brown Rice Planthopper): 95%; mortality at 25 ppm (Diamondback Moth): 100%
5 | CC1=CCC2CC(CC3(CCC(C)C(C)O3)O2)OC(=O)C2C=C(COC(=O)C(C)C)C(O)C3OCC(=CC=CC(C)C1)C23O (stereo not drawn) [KSB-1939L3α] | – | – | – | – | Neutral | – | – | Soluble | Insoluble | – | – | –
6 | CCCC(=O)OCC1=CC2C(=O)OC3CC(CC=C(C)CC(C)C=CC=C4COC(C1O)C42O)OC1(CCC(C)C(C)O1)C3 (stereo not drawn) [KSB-1939L3β] | – | – | – | – | Neutral | – | – | Soluble | Insoluble | – | – | –
7 | CCC1OC2(CCC1C)CC1CC(CC=C(C)CC(C)C=CC=C3COC4C(O)C(COC(=O)C=C(C)C)=CC(C(=O)O1)C34O)O2 (stereo not shown) [KSB-1939S5] | 100% | 100% | – | – | Neutral | 85% | 100% | Soluble | Insoluble | 3.5 µg/mL (≈ 5.46 µM) | > 5000 mg/kg | mortality at 0.04 ppm (Twospotted Spider Mite [1]): 45.7%; LC50 (Kanzawa spider mite): 0.0643 µg/mL (≈ 0.1 µM); LC50 (Twospotted Spider Mite [3]): 0.0339 µg/mL (≈ 0.0529 µM)
8 | CC1=C[C@H]2C(=O)O[C@H]3C[C@@H](C/C=C(\C)C[C@@H](C)/C=C/C=C4\CO[C@H]([C@@H]1O)[C@@]42O)O[C@@]1(CC[C@H](C)[C@@H](C(C)C)O1)C3 [Milbemycin D, reference compound] | – | – | – | – | – | – | – | – | – | 7.5 µg/mL (≈ 13.5 µM) | – | –
9 | Milbemycin [reference compound] | – | – | – | – | – | – | – | – | – | – | – | LC50 Kanzawa spider mite (Kanzawa spider mite; kanzawa spider mite, in vivo): 0.485 ppm; LC50 Twospotted spider mite (Twospotted Spider Mite [3]; twospotted spider mite, in vivo): 0.339 ppm
